We go through four compounds from patent publication US20230017045A1, “PYRIDINE AND PYRIMIDINE CARBOXYLATE HERBICIDES AND METHODS OF USE THEREOF” (Dow AgroSciences LLC, priority 2017, published 2023).

The test system of the assay is test plant species. As to the kind of experiment: Post-emergent herbicidal activity test (greenhouse, foliar spray, visual growth reduction). Format: in vivo. As to conditions: post-emergence, 336 h, 140 g ai/ha. A digest of the protocol:
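Seedlings were raised 7-21 d in a greenhouse under a 15 h photoperiod until the first or second true leaf. Each compound, dissolved in acetone:DMSO 97:3 and diluted into a surfactant-containing spray mixture, was then applied at 187 L/ha. Plants were subirrigated, and growth reduction was scored visually at 14 d.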

Setting [1] is: ECHCG: barnyardgrass (Echinochloa crus-galli), 14 days after application, read-out: Visual Growth Reduction (%) 14 Days After Application, ECHCG.
Setting [2] is: IPOHE: ivy-leaf morning glory (Ipomoea hederacea), 14 days after application, read-out: Visual Growth Reduction (%) 14 Days After Application, IPOHE.
The mark [3] stands for this setting: KCHSC: kochia (Bassia scoparia), 14 days after application, read-out: Visual Growth Reduction (%) 14 Days After Application, KCHSC.
Where [4] appears, read: ORYSA: rice (Oryza sativa), 14 days after application, read-out: Visual Growth Reduction (%) 14 Days After Application, ORYSA.
[5] abbreviates: SETFA: giant foxtail (Setaria faberi), 14 days after application, read-out: Visual Growth Reduction (%) 14 Days After Application, SETFA.
Where [6] appears, read: SORVU: grain sorghum (Sorghum vulgare), 14 days after application, read-out: Visual Growth Reduction (%) 14 Days After Application, SORVU.
Where [7] appears, read: STEME: common chickweed (Stellaria media), 14 days after application, read-out: Visual Growth Reduction (%) 14 Days After Application, STEME.
[8] abbreviates: TRZAS: wheat, spring (Triticum aestivum), 14 days after application, read-out: Visual Growth Reduction (%) 14 Days After Application, TRZAS.
Where [9] appears, read: blackgrass (Alopecurus myosuroides), 14 Days After Application, read-out: Visual Growth Reduction (%) ALOMY.
Setting [10] is: canada thistle (Cirsium arvense), 14 Days After Application, read-out: Visual Growth Reduction (%) CIRAR.
Setting [11] is: crabgrass (Digitaria sanguinalis), 14 Days After Application, read-out: Visual Growth Reduction (%) DIGSA.
Where [12] appears, read: lambsquarters (Chenopodium album), 14 Days After Application, read-out: Visual Growth Reduction (%) CHEAL.
The mark [13] stands for this setting: redroot pigweed (Amaranthus retroflexus), 14 Days After Application, read-out: Visual Growth Reduction (%) AMARE.
The mark [14] stands for this setting: wild oat (Avena fatua), 14 Days After Application, read-out: Visual Growth Reduction (%) AVEFA.
The mark [15] stands for this setting: yellow nutsedge (Cyperus esculentus), 14 Days After Application, read-out: Visual Growth Reduction (%) CYPES.

Read-outs that look alike come from different tables or passages of the source.

Take `COC(=O)c1nc(-c2ccc(Cl)c(C)c2F)ccc1Cl` [F272, Methyl 3-chloro-6-(4-chloro-2-fluoro-3-methylphenyl) picolinate]: the pest or weed control at 140 g/ha fell in the range of 0 to 29% under setting [1]; 0 to 29% under setting [2]; 0 to 29% under setting [3]; 0 to 29% under setting [4]; 0 to 29% under setting [5]; 0 to 29% under setting [6]. The pest or weed control at 140 g/ha was 0 to 29% under setting [7]; 0 to 29% under setting [8]; 0 to 29% under setting [9]; 0 to 29% under setting [10]; 0 to 29% under setting [11]; 0 to 29% under setting [12]. The pest or weed control at 140 g/ha under setting [13] was 0 to 29%, the pest or weed control at 140 g/ha under setting [14] is 0 to 29% and the pest or weed control at 140 g/ha under setting [15] lay within 0 to 29%.

Turning to `COC(=O)c1nc(-c2ccc(Cl)c(C(F)F)c2F)ccc1Cl` [F273, Methyl 3-chloro-6-(4-chloro-3-(difluoromethyl)-2-fluorophenyl) picolinate], the pest or weed control at 140 g/ha under setting [1] lay within 0 to 29%; the pest or weed control at 140 g/ha under setting [2] was 75 to 84%; the pest or weed control at 140 g/ha under setting [3] fell in the range of 0 to 29%; the pest or weed control at 140 g/ha under setting [4] was 0 to 29%; the pest or weed control at 140 g/ha under setting [5] was in the range of 0 to 29%; the pest or weed control at 140 g/ha under setting [6] fell in the range of 75 to 84%. Further, the pest or weed control at 140 g/ha by setting is: under setting [7], 0 to 29%; under setting [8], 0 to 29%; under setting [9], 0 to 29%; under setting [10], 30 to 44%; under setting [11], 60 to 74%; under setting [12], 75 to 84%. Further, the pest or weed control at 140 g/ha reads like this: under setting [13], 0 to 29%; under setting [14], 0 to 29%; under setting [15], 0 to 29%.

`COC(=O)c1nc(-c2ccc(Cl)c(CF)c2F)ccc1Cl` [F274, Methyl 3-chloro-6-(4-chloro-2-fluoro-3-(fluoromethyl)phenyl) picolinate]: the pest or weed control at 140 g/ha is, setting by setting: under setting [1], 0 to 29%; under setting [2], 0 to 29%; under setting [3], 0 to 29%; under setting [4], 0 to 29%; under setting [5], 0 to 29%; under setting [6], 0 to 29%. Further, the pest or weed control at 140 g/ha under setting [7] lay within 0 to 29%; the pest or weed control at 140 g/ha under setting [8] lay within 0 to 29%; the pest or weed control at 140 g/ha under setting [9] was in the range of 0 to 29%; the pest or weed control at 140 g/ha under setting [10] was in the range of 60 to 74%; the pest or weed control at 140 g/ha under setting [11] was 0 to 29%; the pest or weed control at 140 g/ha under setting [12] is 0 to 29%. Also, the pest or weed control at 140 g/ha by setting is: under setting [13], 0 to 29%; under setting [14], 0 to 29%; under setting [15], 0 to 29%.

In the case of `COC(=O)c1nc(-c2ccc(C(F)F)cc2OC)c(F)cc1Cl` [F275, Methyl 3-chloro-6-(4-(difluoromethyl)-2-methoxyphenyl)-5-fluoropicolinate], the pest or weed control at 140 g/ha by setting is: under setting [1], 0 to 29%; under setting [2], 95 to 100%; under setting [3], 85 to 94%; under setting [4], 0 to 29%; under setting [5], 45 to 59%; under setting [6], 45 to 59%. Besides, the pest or weed control at 140 g/ha is, setting by setting: under setting [7], 0 to 29%; under setting [8], 0 to 29%; under setting [9], 0 to 29%; under setting [10], 95 to 100%; under setting [11], 0 to 29%; under setting [12], 85 to 94%. Further, the pest or weed control at 140 g/ha is, setting by setting: under setting [13], 60 to 74%; under setting [14], 0 to 29%; under setting [15], 0 to 29%.
